Measurements published in US11572590B2, “Methods for evaluating tumor cell spheroids using 3D microfluidic cell culture device” (Dana-Farber Cancer Institute, Inc., priority 2017, dated 2023).
Where two headings read alike, the source gives them in different places.

Legend:
[1] = tested on: CT26 MDOTS; assay: Bead-based cytokine profiling of CT26 MDOTS; format: cell-based, murine; conditions: Cmpd1 (1 μM) ± anti-PD-1 (10 μg/mL)
Protocol: Fresh tumor specimens (murine and human patients) were received in media (DMEM) on ice and minced in a 10 cm dish (on ice) using sterile forceps and scalpel. Minced tumor was resuspended in DMEM ([…], […] sodium pyruvate, 1:100 penicillin-streptomycin) (Corning CellGro, Manassas, Va.) +10% FBS (Gemini Bio-Products, West Sacramento, Calif.), 100 U/mL collagenase type IV (Life Technologies, Carlsbad, Calif.), and 15 mM HEPES (Life Technologies, Carlsbad, Calif.), except for CT26 tumors that were prepared in RPMI. Samples were pelleted and resuspended in 10-20 mL media. Red blood cells were removed from visibly bloody samples using RBC Lysis Buffer (Boston Bio-Products, Ashland, Mass.). […]
Two multiplex assays were performed utilizing a bead-based immunoassay approach, the Bio-Plex Pro™ Human Cytokine 40-plex Assay (Cat #171AK99MR2) and Bio-Plex Pro™ Mouse Cytokine Panel 1, 23-plex (Cat #M60009RDPD) on a Bio-plex 200 system (Cat #171000201). […] Fold changes relative to the MDOT/PDOT control were calculated and plotted as log 2FC. Lower and upper limits of quantitation (LLOQ/ULOQ) were imputed from standard curves for cytokines above or below detection. […]

[2] = target: off-target kinases (Homo sapiens, UniProt P06241); assay: SelectScreen Kinase Profiling, single point inhibition and IC50 for off-target kinases; format: biochemical; parameters: other: FYN A; 1000 μM; conditions: FYN A, LanthaScreen Binding
Chain of off-target kinases (P06241 whole entry): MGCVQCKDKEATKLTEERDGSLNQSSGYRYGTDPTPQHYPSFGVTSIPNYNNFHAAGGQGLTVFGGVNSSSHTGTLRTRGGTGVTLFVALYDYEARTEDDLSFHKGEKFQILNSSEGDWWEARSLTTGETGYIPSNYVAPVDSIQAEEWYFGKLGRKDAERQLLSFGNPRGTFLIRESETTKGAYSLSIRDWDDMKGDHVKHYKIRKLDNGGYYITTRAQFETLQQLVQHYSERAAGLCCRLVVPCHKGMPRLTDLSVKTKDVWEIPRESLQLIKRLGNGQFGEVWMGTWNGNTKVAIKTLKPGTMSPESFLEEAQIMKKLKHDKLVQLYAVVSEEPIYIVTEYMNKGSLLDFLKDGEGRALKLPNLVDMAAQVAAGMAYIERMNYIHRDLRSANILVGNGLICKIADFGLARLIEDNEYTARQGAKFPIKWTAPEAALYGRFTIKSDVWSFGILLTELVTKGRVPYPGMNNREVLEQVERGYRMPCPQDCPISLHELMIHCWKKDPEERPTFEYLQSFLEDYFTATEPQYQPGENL
Protocol: Biochemical single point inhibition and IC50 concentrations for TBK1, IKKε (IKBKE), and off-target kinases were determined at ThermoFisher Scientific using SelectScreen Kinase Profiling Services (Madison, Wis., USA) (Tables S4A and S4B-1-7). To determine cellular potency, the human colorectal cancer carcinoma cell line HCT116 (ATCC, Manassas, Va.) was maintained in T175 flasks in complete RPMI medium; RPMI 1640 supplemented with 10% FBS, 1× Penicillin-Streptomycin solution and 1×MEM (non-essential amino acids). HCT116 cells were grown to 90-95% confluency in T175 flasks containing complete RPMI medium and transfected in bulk using Lipofectamine 2000 (Invitrogen, Carlsbad, Calif.) with 70 μg of ISG54-luciferase reporter plasmid (Elim Biopharmaceuticals Inc., Hayward, Calif.). The reporter plasmid contains a luciferase gene expression cassette under the transcriptional regulation of the promoter of the human interferon stimulated gene 54 (ISG54). […] The assay plates were incubated for 5 hours at 37° C., followed by addition of One-Glo luciferase firefly reagent (Promega, Madison, Wis.) at 1:1 volume/well and luminescence was measured in an EnVision Multilabel Plate Reader (PerkinElmer, Santa Clara, Calif.). The EC50 values were calculated from the fit of the dose-response curves to a four-parameter equation. […]

In the case of `N#Cc1cc(-c2ncnc(Nc3ccc(N4CCN(C5COC5)CC4)cc3)n2)ccc1OC1CCOCC1` [Compound 1, 5-(4-((4-(4-(oxetan-3-yl)piperazin-1-yl)phenyl)amino)-1,3,5-triazin-2-yl)-2-((tetrahydro-2H-pyran-4-yl)oxy)benzonitrile], the “cytokines involved in activated innate immune responses (e.g., G-CSF) in CT26 MDOTS” value [1] is reported as “concomitant induction”, the “levels of CCL4, CCL3, and IL-1β in CT26 MDOTS” value [1] is reported as “Decreased levels” and the inhibition ([2]; read-out: % Inhibition 1) is reported as 16%. For the same molecule, the inhibition ([2]; read-out: % Inhibition 2) was 21%.
